The source made the active and inactive calls. No cut-off for these calls is given here.
Key:
[1] = test system: Radical scavenging activity; assay: Antioxidant activity assessed as DPPH radical scavenging activity after 90 mins; assay type: functional
[2] = Inhibition of lipid peroxidation in Sprague-Dawley rat heart mitochondria assessed as inhibition of FeSO4-induced malondialdehyde formation; assay type: functional
[3] = Inhibition of lipid peroxidation in Sprague-Dawley rat heart mitochondria assessed as inhibition of FeSO4-induced oxygen consumption; assay type: functional
Rattus norvegicus [4] = organism: Rattus norvegicus; assay: Inhibition of lipid peroxidation in Sprague-Dawley rat heart mitochondria assessed as inhibition of FeSO4-induced oxygen consumption up to 0.3 mM relative to control; assay type: functional; design: scale not given: the % may be the effect or the level left
Rattus norvegicus [5] = organism: Rattus norvegicus; assay: Inhibition of lipid peroxidation in Sprague-Dawley rat heart mitochondria assessed as inhibition of FeSO4-induced malondialdehyde formation up to 0.3 mM relative to control; assay type: functional; design: scale not given: the % may be the effect or the level left
PBMC = assay: Inhibition of thymidine uptake in phytohemagglutininin-stimulated human PBMC; assay type: functional, cell-based
Rattus norvegicus [6] = organism: Rattus norvegicus; assay: Antioxidant activity in Sprague-Dawley rat heart mitochondria assessed as inhibition of conjugated diene formation at 1 to 300 uM; assay type: functional

Row | Structure (SMILES) | IC50 [2] [µM] | IC50 [3] [µM] | Activity (Rattus norvegicus [4]) [%] | Activity (Rattus norvegicus [5]) [%] | further results
1 | O=C1c2ccccc2C(=O)c2c1ccc(O)c2O [ATHRAQUINONES A] | 49.5 | 63.9 | – | – | Activity [1]: Active
2 | Oc1cc(O)c2c(c1)O[C@H](c1ccc(O)c(O)c1)[C@H](O)[C@H]2c1c(O)cc(O)c2c1O[C@H](c1ccc(O)c(O)c1)[C@H](O)C2 [PROCYANIDIN B2] | 9 | 11 | – | – | –
3 | Cc1cc(O)c2c(c1)C(=O)c1cc(O)cc(O[C@@H]3O[C@H](CO)[C@@H](O)[C@H](O)[C@H]3O)c1C2=O | – | – | < 50 | < 50 | –
4 | O=C(O[C@@H]1Cc2c(O)cc(O)cc2O[C@@H]1c1cc(O)c(O)c(O)c1)c1cc(O)c(O)c(O)c1 [EPIGALOCATECHIN GALLATE] | 9.4 | 12.2 | – | – | –
5 | COc1cc(O[C@@H]2O[C@H](CO)[C@@H](O)[C@H](O)[C@H]2O)c2c(c1)C(=O)c1cc(C)cc(O)c1C2=O | – | – | < 50 | < 50 | –
6 | O=C1c2cccc(O)c2C(=O)c2cccc(O)c21 | – | – | < 50 | < 50 | –
7 | O=C1c2ccc(O)cc2C(=O)c2ccc(O)cc21 | – | – | < 50 | < 50 | Activity (PBMC): Active
8 | Cc1c(C)c2c(c(C)c1O)CC[C@@](C)(CCC[C@H](C)CCC[C@H](C)CCCC(C)C)O2 [ALPHA-TOCOPHEROL] | 94.7 | 102 | – | – | Activity [1]: Active
9 | CCc1ccc2c(c1)C(=O)c1ccccc1C2=O | – | – | < 50 | < 50 | –
10 | Nc1cccc2c1C(=O)c1ccccc1C2=O | – | – | < 50 | < 50 | –
11 | O=C1c2ccccc2C(=O)c2ccccc21 | – | – | < 50 | < 50 | –
12 | O=C(O)c1ccc2c(c1)C(=O)c1ccccc1C2=O | – | – | < 50 | < 50 | –
13 | Cc1cc(O)c2c(c1)C(=O)c1cccc(O)c1C2=O | – | – | < 50 | < 50 | –
14 | COc1cc(O)c2c(c1)C(=O)c1cc(C)cc(O)c1C2=O | – | – | < 50 | < 50 | –
15 | O=C1OC[C@H]2OC(O)[C@@H]3OC(=O)c4cc(O)c(O)c(O)c4-c4c(cc(O)c(O)c4O)C(=O)O[C@H]3[C@@H]2OC(=O)c2cc(O)c(O)c(O)c2-c2c1cc(O)c(O)c2O (stereo partly drawn) [PEDUNCULAGIN] | 12 | 7.8 | – | – | –
16 | Nc1ccc2c(c1)C(=O)c1ccccc1C2=O | – | – | < 50 | < 50 | –
17 | O=C(O[C@@H]1Cc2c(O)cc(O)cc2O[C@@H]1c1ccc(O)c(O)c1)c1cc(O)c(O)c(O)c1 [EPICATECHIN GALLATE] | 5.4 | 8.4 | – | – | –
18 | O=C(O[C@@H]1Cc2c(O)cc(O)cc2O[C@H]1c1cc(O)c(O)c(O)c1)c1cc(O)c(O)c(O)c1 [GALLOCATECHIN GALLATE] | 8.6 | 14 | – | – | –
19 | Cc1cc(O)c2c(c1)C(=O)c1cc(O)cc(O)c1C2=O [EMODIN] | 16.8 | 12.5 | – | – | Activity (Rattus norvegicus [6]): inactive; Activity [1]: inactive
